Target: Transthyretin (Homo sapiens) (UniProt P02766)
Test: Relative binding affinity against prealbumin in competition binding assay and expressed as relative to L-T4 (100)

Row | Structure (SMILES) | Binding affinity
1 | N[C@@H](Cc1cc(I)c(Oc2cc(I)c(O)c(I)c2)c(I)c1)C(=O)O | 100
2 | O=C(O)CCCCC(=O)Nc1cc(Cl)cc2c1oc1cc(Cl)c(Cl)cc12 | 0.32
3 | O=C(O)CCCCC(=O)Nc1cc(Cl)cc2c1Oc1cc(Cl)c(Cl)cc1O2 | 15
4 | Oc1c(I)cc(I)cc1I | 384

Reference: ChEMBL document CHEMBL1122962, “Molecular interactions of toxic chlorinated dibenzo-p-dioxins and dibenzofurans with thyroxine binding prealbumin” (J Med Chem, 1985)
